Source: ChEMBL document CHEMBL1201862, “PubChem BioAssay data set” (2004)
Calls of active or inactive are those of the source.

Legend:
HEK293 [1] = assay: cells; assay type: functional, cell-based; conditions: Homo sapiens
HEK293 [2] = assay: cells; conditions: Homo sapiens
HEK293 [3] = assay: cells; assay type: functional, cell-based; conditions: Homo sapiens; remark: listed apart in the source
X-box-binding protein 1 = molecular target: T1, X-box-binding protein 1 (Homo sapiens, UniProt P17861); assay type: functional, Cricetulus griseus;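 note: confirmatory dose-response counter-screen serving a CHOP assay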
T1 sequence (P17861 whole entry): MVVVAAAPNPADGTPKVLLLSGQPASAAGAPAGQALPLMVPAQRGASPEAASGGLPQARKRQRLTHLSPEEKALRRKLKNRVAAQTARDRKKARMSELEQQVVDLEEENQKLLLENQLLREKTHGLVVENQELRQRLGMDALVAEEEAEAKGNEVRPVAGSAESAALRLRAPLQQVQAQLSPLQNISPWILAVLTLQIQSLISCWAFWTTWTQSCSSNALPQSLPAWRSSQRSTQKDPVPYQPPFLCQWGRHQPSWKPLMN

HEK293 [4] = assay: NOD2 signaling inhibitors in MDP-stimulated cells, cell-based, uHTS, luminescence (AID 2001); assay type: functional; conditions: Homo sapiens
[5] = molecular target: Nucleotide-binding oligomerization domain-containing protein 2 (Homo sapiens, UniProt Q9HC29); assay: NOD2 signaling inhibitors, cell-based, luminescence, uHTS, HEK293 (AID 1566); assay type: functional
Sequence of Nucleotide-binding oligomerization domain-containing protein 2 (Q9HC29 whole entry, the tested form may be a part): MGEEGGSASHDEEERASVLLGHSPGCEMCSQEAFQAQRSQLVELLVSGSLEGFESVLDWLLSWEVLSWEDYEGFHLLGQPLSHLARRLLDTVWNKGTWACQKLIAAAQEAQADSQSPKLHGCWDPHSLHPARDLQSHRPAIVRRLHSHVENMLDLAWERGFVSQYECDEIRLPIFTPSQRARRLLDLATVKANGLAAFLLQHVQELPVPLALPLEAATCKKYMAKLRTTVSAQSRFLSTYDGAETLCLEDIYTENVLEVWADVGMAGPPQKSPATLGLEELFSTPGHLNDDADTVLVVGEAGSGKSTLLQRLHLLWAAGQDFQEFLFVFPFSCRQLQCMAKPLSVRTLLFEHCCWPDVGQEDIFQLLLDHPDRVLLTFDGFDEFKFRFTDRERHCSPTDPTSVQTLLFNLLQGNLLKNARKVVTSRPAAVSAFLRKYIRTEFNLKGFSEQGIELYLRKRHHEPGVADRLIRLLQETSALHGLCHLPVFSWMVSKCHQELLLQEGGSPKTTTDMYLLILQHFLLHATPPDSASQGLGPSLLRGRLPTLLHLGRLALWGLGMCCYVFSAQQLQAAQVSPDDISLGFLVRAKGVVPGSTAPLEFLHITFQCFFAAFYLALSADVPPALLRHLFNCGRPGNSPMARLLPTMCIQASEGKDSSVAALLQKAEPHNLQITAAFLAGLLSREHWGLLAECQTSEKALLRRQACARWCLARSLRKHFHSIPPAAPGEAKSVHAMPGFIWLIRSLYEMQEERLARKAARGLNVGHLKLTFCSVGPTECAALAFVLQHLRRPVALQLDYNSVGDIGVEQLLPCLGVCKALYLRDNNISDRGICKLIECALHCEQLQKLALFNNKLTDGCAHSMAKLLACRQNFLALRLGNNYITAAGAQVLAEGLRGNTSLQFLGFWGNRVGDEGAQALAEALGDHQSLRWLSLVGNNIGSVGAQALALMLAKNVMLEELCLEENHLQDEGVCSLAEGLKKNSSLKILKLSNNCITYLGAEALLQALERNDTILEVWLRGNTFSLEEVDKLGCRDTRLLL

[6] = molecular target: T2, Nucleotide-binding oligomerization domain-containing protein 1 (Homo sapiens, UniProt Q9Y239); assay: NOD1 signaling inhibitors, SAR follow-up, revised (AID 2333); assay type: functional
T2 sequence (Q9Y239 whole entry): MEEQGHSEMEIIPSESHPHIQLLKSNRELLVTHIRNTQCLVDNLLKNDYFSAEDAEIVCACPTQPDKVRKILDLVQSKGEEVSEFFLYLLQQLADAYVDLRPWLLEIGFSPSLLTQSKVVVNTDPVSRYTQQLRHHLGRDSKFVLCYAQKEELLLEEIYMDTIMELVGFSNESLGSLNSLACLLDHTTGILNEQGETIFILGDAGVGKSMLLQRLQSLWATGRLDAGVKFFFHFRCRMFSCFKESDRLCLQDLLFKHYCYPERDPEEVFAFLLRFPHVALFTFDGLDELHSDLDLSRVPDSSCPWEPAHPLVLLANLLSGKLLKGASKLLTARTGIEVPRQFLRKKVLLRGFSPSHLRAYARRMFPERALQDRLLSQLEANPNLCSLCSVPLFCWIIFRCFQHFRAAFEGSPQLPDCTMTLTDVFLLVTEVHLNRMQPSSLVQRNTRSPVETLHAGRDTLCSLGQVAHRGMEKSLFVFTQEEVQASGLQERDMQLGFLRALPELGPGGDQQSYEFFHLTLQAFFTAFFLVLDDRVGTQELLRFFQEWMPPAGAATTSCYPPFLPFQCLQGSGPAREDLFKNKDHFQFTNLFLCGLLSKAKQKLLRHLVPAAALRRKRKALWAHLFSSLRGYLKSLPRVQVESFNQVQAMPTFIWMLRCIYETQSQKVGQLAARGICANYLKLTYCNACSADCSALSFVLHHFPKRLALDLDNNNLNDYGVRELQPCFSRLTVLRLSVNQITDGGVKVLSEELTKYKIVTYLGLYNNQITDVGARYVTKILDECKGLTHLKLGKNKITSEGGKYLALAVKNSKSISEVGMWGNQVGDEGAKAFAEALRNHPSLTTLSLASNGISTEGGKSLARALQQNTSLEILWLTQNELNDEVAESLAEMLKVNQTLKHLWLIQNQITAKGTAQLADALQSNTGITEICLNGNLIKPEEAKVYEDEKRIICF

HEK293 [7] = assay: cells; assay type: functional, cell-based; conditions: Homo sapiens; remark: listed apart in the source
Tumor necrosis factor = Tumor necrosis factor (Homo sapiens, UniProt P01375); assay: TNFa-triggered NF-kB activation inhibitors, SAR follow-up, cell-based, revised (AID 2337); assay type: functional
Sequence of Tumor necrosis factor (P01375 whole entry): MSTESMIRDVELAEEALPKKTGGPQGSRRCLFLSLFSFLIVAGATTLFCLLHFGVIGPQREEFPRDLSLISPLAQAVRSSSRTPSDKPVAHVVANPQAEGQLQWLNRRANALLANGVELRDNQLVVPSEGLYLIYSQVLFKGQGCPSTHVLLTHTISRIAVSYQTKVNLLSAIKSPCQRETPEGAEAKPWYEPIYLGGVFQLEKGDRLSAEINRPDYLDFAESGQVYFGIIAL

HEK293 [8] = assay: NOD1 signaling inhibitors, primary screen, cell-based, luminescence, uHTS (AID 1578); assay type: functional; conditions: Homo sapiens
[9] = ADAM10 protease inhibitors, dose response, selectivity assay for ADAM17 exosite inhibitor project, biochemical, FRET peptide substrate, recombinant human ADAM10 (AID 743259);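 note: ADAM10 enzyme cleaving a FRET peptide substrate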
INS1 = assay: beta cell apoptosis inhibitors, cytokine rescue, dose response, luminescence, retest (AID 449756); assay type: functional, cell-based; conditions: Rattus norvegicus;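 note: cell death triggered by IL-1 beta plus TNF-alpha plus IFN-gamma mixture; protective hits raise ATP signal compared with cytokine alone wells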
[10] = molecular target: Disintegrin and metalloproteinase domain-containing protein 17 (Homo sapiens, UniProt P78536); assay: exosite inhibitors of ADAM17, dose response, biochemical (AID 743260)
Sequence of Disintegrin and metalloproteinase domain-containing protein 17 (P78536 whole entry, the tested form may be a part): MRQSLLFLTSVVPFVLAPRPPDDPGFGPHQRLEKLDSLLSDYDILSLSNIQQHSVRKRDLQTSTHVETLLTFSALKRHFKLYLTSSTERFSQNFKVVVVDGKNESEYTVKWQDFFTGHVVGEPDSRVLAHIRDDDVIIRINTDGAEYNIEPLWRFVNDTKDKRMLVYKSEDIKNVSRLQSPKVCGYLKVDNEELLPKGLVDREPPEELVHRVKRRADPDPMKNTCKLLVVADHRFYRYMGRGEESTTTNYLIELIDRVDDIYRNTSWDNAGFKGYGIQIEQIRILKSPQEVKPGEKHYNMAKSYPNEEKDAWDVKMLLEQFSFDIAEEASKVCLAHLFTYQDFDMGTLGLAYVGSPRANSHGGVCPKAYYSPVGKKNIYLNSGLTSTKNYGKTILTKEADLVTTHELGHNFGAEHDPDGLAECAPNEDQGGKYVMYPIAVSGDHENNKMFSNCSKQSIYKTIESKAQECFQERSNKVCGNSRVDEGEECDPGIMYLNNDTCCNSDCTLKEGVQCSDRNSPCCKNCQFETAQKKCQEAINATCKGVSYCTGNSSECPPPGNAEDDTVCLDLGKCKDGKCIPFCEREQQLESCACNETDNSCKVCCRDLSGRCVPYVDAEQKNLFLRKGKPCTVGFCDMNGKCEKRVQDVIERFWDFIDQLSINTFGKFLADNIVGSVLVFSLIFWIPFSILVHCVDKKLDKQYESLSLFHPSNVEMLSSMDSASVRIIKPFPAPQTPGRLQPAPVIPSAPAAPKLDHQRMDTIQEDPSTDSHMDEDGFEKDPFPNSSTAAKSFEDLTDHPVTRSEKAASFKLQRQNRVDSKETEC

[11] = Luminescence Cell-Based Dose Confirmation HTS to Identify Activators of 5'UTR Stem-Loop Driven Alpha-Synuclein mRNA Translation in H4 Neuroglioblastoma Cells. [Related pubchem assays: 1829 (Project Summary), 1814 (Primary HTS)]; assay type: functional
H4 = assay: Luminescence Cell-Based Dose Response HTS to Identify Activators of 5'UTR Stem-Loop Driven Prion Protein mRNA Translation in H4 Neuroglioblastoma Cells. [Related pubchem assays: 1829 (Project Summary), 1814 (Primary HTS)]; assay type: functional; conditions: Homo sapiens
[12] = microbe, parasite or virus in culture; assay type: functional; conditions: Mycobacterium tuberculosis
[13] = insulin promoter down-regulators in MIN6 cells, imaging, high-content screening, mouse beta cells (AID 1628); assay type: functional
[14] = HEp-2 cell cytotoxicity, dose response, cytotoxicity control for RSV inhibitor project, HTS (AID 2410); assay type: functional; conditions: human respiratory syncytial virus
[15] = Luminescence Cell-Based Dose Response HTS to Identify Activators of Luciferase Translation or Activity in H4 […] Cells. [Related pubchem assays: 1829 (Project Summary), 1814 (Primary HTS)]; assay type: functional
[16] = cytotoxicity in MIN6 insulinoma cells, dose response, cytotoxicity control, cell-based, mouse insulinoma (AID 2122); assay type: functional;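 note: confirmatory high-throughput counterscreen run to flag cytotoxic compounds; mouse MIN-6 beta cells carrying an insulin promoter eGFP reporter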
[17] = molecular target: T3, Alkaline phosphatase, tissue-nonspecific isozyme (Homo sapiens, UniProt P05186); assay: TNAP enzyme activators, dose response, selectivity assay for human IAP activator project, biochemical, TNAP isozyme, human IAP uHTS hits (AID 488886); assay type: functional;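 note: potency of compounds raising TNAP activity as a selectivity check on IAP activators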
T3 sequence (P05186 whole entry): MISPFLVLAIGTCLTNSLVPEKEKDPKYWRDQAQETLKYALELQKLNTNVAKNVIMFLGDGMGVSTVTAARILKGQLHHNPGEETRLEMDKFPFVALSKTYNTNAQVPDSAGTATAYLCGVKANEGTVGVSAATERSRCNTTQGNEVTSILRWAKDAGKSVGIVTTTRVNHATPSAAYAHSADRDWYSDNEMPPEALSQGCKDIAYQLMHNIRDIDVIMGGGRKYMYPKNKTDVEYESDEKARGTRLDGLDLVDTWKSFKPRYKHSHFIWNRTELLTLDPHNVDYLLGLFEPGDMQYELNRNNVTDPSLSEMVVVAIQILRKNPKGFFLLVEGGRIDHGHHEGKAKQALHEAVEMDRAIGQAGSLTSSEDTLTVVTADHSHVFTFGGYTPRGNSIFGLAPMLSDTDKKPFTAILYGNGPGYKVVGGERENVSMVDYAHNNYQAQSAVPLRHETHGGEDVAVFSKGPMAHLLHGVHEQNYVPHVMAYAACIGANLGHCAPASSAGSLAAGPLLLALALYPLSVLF

Nonstructural protein 1 = Nonstructural protein 1 (Influenza A virus, UniProt Q194T2); assay type: functional, Influenza A virus (A/California/07/2009(H1N1))
Sequence of Nonstructural protein 1 (Q194T2 whole entry): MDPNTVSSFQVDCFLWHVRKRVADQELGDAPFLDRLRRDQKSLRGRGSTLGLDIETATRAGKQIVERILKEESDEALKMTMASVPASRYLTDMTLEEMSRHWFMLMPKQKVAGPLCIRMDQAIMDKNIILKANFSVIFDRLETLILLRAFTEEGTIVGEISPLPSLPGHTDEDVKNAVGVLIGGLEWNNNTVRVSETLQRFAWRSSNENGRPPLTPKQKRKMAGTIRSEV

[18] = system: Streptococcus sp. 'group A'; assay: growth inhibition of control SK(-) GAS strain, dose response, counter-screen for streptokinase expression inhibitor project, luminescence, kanamycin, BacTiterGlo, confirmation (AID 1900); assay type: functional, organism-based
[19] = molecular target: Intestinal-type alkaline phosphatase (Mus musculus, UniProt P24822); assay: PubChem AID 488874; assay type: functional
Sequence of Intestinal-type alkaline phosphatase (Mus musculus, UniProt P24822) (P24822 whole entry): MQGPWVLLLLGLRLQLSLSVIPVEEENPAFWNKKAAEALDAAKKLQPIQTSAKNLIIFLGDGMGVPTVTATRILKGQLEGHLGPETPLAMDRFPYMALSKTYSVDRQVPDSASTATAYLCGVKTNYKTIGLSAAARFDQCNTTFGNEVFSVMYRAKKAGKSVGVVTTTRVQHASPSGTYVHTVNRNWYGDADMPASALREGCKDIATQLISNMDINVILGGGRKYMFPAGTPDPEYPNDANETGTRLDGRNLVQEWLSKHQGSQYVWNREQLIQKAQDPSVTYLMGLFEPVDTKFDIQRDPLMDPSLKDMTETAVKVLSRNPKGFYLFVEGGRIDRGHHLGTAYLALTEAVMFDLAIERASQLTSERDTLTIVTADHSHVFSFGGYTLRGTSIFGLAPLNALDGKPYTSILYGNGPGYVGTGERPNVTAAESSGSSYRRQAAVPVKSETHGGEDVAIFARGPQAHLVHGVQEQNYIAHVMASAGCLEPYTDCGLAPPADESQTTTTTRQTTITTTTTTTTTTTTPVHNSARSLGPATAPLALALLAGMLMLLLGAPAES

Albumin = Albumin (Bos taurus, UniProt P02769); assay: Counterscreen for inhibitors of T-cell receptor (TCR)-CD3 interaction: Fluorescence-based biochemical high throughput dose response assay to identify inhibitors of T-cell receptor (TCR)-CD3 interaction using a TAMRA-labeled BSA probe.; assay type: functional
Sequence of Albumin (P02769 whole entry): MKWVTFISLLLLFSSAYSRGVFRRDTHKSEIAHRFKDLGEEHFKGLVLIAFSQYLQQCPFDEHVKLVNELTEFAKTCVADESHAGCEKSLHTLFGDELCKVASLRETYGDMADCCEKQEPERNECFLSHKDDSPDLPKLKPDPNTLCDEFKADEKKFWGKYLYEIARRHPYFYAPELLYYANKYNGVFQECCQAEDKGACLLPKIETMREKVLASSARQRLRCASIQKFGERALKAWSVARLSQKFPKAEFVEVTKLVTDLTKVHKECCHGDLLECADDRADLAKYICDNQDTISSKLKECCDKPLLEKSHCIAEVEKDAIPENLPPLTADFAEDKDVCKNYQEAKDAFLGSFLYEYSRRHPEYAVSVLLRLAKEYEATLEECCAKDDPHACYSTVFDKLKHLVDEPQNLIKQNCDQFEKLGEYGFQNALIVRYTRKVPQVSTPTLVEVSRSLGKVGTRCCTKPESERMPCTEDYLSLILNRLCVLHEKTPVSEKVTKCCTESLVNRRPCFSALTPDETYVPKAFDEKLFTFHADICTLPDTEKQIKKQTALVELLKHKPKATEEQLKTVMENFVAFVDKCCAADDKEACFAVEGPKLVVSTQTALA

[20] = molecular target: T4, Intestinal-type alkaline phosphatase (Homo sapiens, UniProt P09923); assay: human IAP activators, dose response, biochemical, luminescent, uHTS hits, set 2 (AID 488817); assay type: functional;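 note: potency of activators that raise enzyme activity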
T4 sequence (P09923 whole entry): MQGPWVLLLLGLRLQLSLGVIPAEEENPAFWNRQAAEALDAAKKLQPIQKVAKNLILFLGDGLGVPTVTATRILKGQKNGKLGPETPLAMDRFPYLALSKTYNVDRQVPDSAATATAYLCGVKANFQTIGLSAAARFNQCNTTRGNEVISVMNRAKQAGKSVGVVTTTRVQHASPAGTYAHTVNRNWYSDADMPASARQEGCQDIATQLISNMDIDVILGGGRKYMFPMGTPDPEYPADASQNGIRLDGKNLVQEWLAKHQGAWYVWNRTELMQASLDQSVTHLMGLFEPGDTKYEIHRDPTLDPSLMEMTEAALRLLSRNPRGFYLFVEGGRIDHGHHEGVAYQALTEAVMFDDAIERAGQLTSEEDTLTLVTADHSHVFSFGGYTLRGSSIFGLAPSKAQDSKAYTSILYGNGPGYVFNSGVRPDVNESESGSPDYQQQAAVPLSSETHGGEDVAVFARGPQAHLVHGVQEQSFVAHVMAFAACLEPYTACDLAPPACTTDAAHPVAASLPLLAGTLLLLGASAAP

Streptococcus = assay: Group A Streptococcus viability loss, dose response, counter-screen for streptokinase expression inhibitor project, luminescence, BacTiterGlo (AID 1915); assay type: functional, organism-based;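 note: potency for reduction of bacterial viability or growth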
[21] = molecular target: T4, Intestinal-type alkaline phosphatase; assay: human intestinal alkaline phosphatase activators, dose response, biochemical, luminescence, uHTS hits (AID 463120); assay type: functional
[22] = molecular target: T5, Heat shock factor protein 1 (Mus musculus, UniProt P38532); assay: inhibition of MG132-induced HSE-luciferase signal, confirmation, cell-based, NIH3T3, luminescence, dose retest (AID 2382); assay type: functional;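 note: NIH3T3 fibroblasts with HSF1-driven luciferase reporter stressed by proteasome inhibitor MG132; luminescence from HSF1-driven luciferase expression after 8 hours of MG132 stress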
T5 sequence (P38532 whole entry): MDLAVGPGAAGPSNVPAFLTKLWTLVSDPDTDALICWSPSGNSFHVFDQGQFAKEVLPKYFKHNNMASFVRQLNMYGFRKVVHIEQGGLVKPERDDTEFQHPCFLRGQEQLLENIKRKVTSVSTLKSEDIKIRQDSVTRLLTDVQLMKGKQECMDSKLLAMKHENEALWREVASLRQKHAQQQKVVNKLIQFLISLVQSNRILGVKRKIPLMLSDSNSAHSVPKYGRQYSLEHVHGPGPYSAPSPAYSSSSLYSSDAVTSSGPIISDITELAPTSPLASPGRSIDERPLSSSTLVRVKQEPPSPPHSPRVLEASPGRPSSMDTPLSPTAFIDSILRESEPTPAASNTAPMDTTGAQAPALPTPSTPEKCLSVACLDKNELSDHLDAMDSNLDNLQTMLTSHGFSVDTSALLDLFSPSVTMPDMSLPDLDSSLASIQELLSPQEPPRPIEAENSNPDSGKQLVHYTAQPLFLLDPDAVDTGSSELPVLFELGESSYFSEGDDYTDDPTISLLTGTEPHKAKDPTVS

[23] = molecular target: T3, Alkaline phosphatase, tissue-nonspecific isozyme; assay: inhibition of tissue-nonspecific alkaline phosphatase – biochemical, dose response (AID 488882); assay type: functional
[24] = HeLa cell cytotoxicity, dose response, cytotoxicity control for MgcRacGAP inhibitor project (AID 624300); assay type: functional
[25] = molecular target: Induced myeloid leukemia cell differentiation protein Mcl-1 (Homo sapiens, UniProt Q07820); assay type: functional
Sequence of Induced myeloid leukemia cell differentiation protein Mcl-1 (Q07820 whole entry): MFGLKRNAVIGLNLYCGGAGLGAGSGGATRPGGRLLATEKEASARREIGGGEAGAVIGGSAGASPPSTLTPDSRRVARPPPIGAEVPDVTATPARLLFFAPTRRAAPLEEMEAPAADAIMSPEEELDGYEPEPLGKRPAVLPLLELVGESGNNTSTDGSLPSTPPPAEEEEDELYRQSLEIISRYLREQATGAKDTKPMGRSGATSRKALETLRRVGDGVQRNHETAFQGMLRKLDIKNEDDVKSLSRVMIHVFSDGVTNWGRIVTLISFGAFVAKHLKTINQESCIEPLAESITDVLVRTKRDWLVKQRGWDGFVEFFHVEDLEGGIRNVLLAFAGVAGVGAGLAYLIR

[26] = molecular target: T6, Rac GTPase-activating protein 1 (Homo sapiens, UniProt Q9H0H5); assay: MgcRacGAP GTPase-activating activity inhibitors, confirmation, biochemical, ADP Hunter fluorescence, primary and confirmatory (AID 624330); assay type: functional
T6 sequence (Q9H0H5 whole entry): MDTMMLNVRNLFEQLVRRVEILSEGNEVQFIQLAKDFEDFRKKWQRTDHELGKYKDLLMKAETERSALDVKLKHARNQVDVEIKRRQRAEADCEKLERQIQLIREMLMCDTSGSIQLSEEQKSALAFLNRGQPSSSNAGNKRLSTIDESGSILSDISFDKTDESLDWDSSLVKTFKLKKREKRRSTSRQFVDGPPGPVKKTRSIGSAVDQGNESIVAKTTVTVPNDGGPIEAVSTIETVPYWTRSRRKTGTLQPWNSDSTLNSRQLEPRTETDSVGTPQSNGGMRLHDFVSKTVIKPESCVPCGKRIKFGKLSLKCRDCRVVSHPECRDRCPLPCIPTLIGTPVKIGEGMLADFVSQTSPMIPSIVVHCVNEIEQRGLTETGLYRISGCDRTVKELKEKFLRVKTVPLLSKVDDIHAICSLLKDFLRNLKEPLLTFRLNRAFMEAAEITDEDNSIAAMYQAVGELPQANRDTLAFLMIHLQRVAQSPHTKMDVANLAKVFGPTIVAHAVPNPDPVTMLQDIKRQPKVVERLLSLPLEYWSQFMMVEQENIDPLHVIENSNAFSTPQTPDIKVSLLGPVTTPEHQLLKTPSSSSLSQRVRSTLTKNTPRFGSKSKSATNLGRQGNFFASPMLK

CCCCn1c(=O)c(C(=O)Nc2cnccn2)c(O)c2ccccc21
10 µM: Absolute IC50 (XBP1) (X-box-binding protein 1)
inactive: IC50 (HEK293 [1]) > 20 µM | IC50 (HEK293 [2]) > 20 µM | IC50 (HEK293 [3]) > 20 µM | IC50 (HEK293 [7]) > 20 µM
active: IC50 (HEK293 [4]) 7.07 µM | EC50 [5] 1.72 µM | IC50 [6] 7.68 µM | IC50 (Tumor necrosis factor) 4.92 µM | EC50 (HEK293 [8]) 3.1 µM

O=C(Nc1nc2ccc(F)cc2s1)C1CCN(S(=O)(=O)c2cc([N+](=O)[O-])ccc2Cl)CC1
inactive: IC50 [10] > 69.5 µM
active: IC50 [9] > 7.72 µM | AC50 (INS1) 8.24 µM | EC50 [11] 14.7 µM | EC50 (H4) 4.7 µM | CC50 [12] 20.2 µM | IC50 [13] 2.34 µM | CC50 [14] 12 µM | EC50 [15] 25.8 µM | IC50 [16] 2.37 µM

CCOC(=O)c1c(C)[nH]c(C(=O)N/N=C/c2cc([N+](=O)[O-])ccc2O)c1C
active: EC50 [17] 22.3 µM | IC50 (Nonstructural protein 1) 44 µM | EC50 [18] 2.33 µM | EC50 [20] 11.4 µM | EC50 (Streptococcus) 2.97 µM | EC50 [21] 12.1 µM | EC50 [22] 0.86 µM
inactive: IC50 [19] > 100 µM | IC50 (Albumin) > 94.1 µM

CC1C(=O)NN=C1C(=O)N/N=C\c1ccc(O)cc1O (configuration not stated)
inactive: IC50 [19] > 100 µM
active: IC50 (Nonstructural protein 1) 15.9 µM | IC50 [23] 7.32 µM | EC50 [20] 11.3 µM | EC50 [21] 8.3 µM | CC50 [24] 100 µM | IC50 [25] 7.72 µM | IC50 [26] 45.4 µM
